Test [1] deals with MCF7. Description: Antiproliferative activity against human MCF7 cells after 48 hrs by MTT assay. Type of test: functional, cell-based. The note with it: for EC50: Homo sapiens, MCF7, 48 h. On the technique in general: Tetrazolium dyes change colour on reduction, which living cells bring about.
Test [2] in a line: Displacement of [3H]DTG from sigma 2 receptor in Wistar Hannover rat liver membrane by competition binding assay. Type of test: cell membranes. A general note: Loss of bound radioactivity is the signal in a displacement assay; it reports binding, not function.
Test [3] relates to MCF7. Description: Antiproliferative activity against human MCF7 cells transfected with human sigma1 receptor after 48 hrs by MTT assay. Type of test: functional, cell-based. Also on record: Activity: concentration or dose not given beside the values. The note with it: for EC50: Homo sapiens, MCF7, 48 h.
Test [4] in a line: Selectivity ratio of Ki for sigma 2 receptor in Wistar Hannover rat liver membrane to Ki for sigma 1 receptor in Dunkin guinea pig brain membrane without cerebellum. Type of test: cell membranes.
Test [5] has as its target Sigma non-opioid intracellular receptor 1 (Cavia porcellus, UniProt Q60492). As to the kind of experiment: Displacement of [3H]pentazocine from sigma 1 receptor in Dunkin guinea pig brain membrane without cerebellum by competition binding assay. Type of test: cell membranes.
In test [6] the test system is MCF7. As to the kind of experiment: Activity at sigma 2 receptor in human MCF7 cells assessed as Ca2+ mobilization by fluorescence analysis. Type of test: cell-based. A general note: Calcium assays in cells follow changes in intracellular calcium, usually with a dye or a luminescent sensor.
For test [7], the target named is Sigma non-opioid intracellular receptor 1 (Homo sapiens) (UniProt Q99720). As to the kind of experiment: Activity at human sigma 1 receptor transfected in human MCF7 cells assessed as Ca2+ mobilization by fluorescence analysis. Type of test: cell-based.
The subject of test [8] is MCF7. As to the kind of experiment: Antagonist activity at sigma 2 receptor in human MCF7 cells assessed as effect on bradykinin-triggered Ca2+ response at 1 uM pretreated for 10 mins measured every 5 secs by fluorescence analysis. Type of test: cell-based.
The target of test [9] is Sigma non-opioid intracellular receptor 1 (Homo sapiens) (UniProt Q99720). As to the kind of experiment: Antagonist activity at human sigma 1 receptor transfected in human MCF7 cells assessed as decrease in bradykinin-triggered Ca2+ response at 1 uM pretreated for 10 mins measured every 5 secs by fluorescence analysis in presence of 1 uM sigma 1 receptor agonist, (+)-pentazocine. Type of test: cell-based.

Test [10] has the same target. As to the kind of experiment: Antagonist activity at human sigma 1 receptor transfected in human MCF7 cells assessed as decrease in bradykinin-triggered Ca2+ response at 1 uM pretreated for 10 mins measured every 5 secs by fluorescence analysis. Type of test: cell-based.
Test [11] has the same target. As to the kind of experiment: Agonist activity at human sigma 1 receptor transfected in human MCF7 cells assessed as increase in bradykinin-triggered Ca2+ response at 1 uM pretreated for 10 mins measured every 5 secs by fluorescence analysis in presence of 1 uM sigma 1 receptor antagonist, BD1063. Type of test: cell-based.
For test [12] the target is unchanged. Description: Agonist activity at human sigma 1 receptor transfected in human MCF7 cells assessed as increase in bradykinin-triggered Ca2+ response at 1 uM pretreated for 10 mins measured every 5 secs by fluorescence analysis. Type of test: cell-based.
The subject of test [13] is MCF7. Description: Agonist activity at sigma 2 receptor in human MCF7 cells assessed as decrease in bradykinin-induced Ca2+ response at 1 uM pretreated for 10 mins measured every 5 secs by fluorescence analysis in presence of 10 uM sigma 2 receptor antagonist, AC927. Type of test: cell-based.
Test [14] concerns MCF7. As to the kind of experiment: Agonist activity at sigma 2 receptor in human MCF7 cells assessed as decrease in bradykinin-induced Ca2+ response at 1 uM pretreated for 10 mins measured every 5 secs by fluorescence analysis. Type of test: cell-based.
In test [15] the test system is MCF7. Description: Antagonist activity at sigma 2 receptor in human MCF7 cells assessed as effect on bradykinin-triggered Ca2+ response at 10 uM pretreated for 10 mins measured every 5 secs by fluorescence analysis. Type of test: cell-based.
Test [16] relates to MCF7. Description: Activity at sigma 2 receptor in human MCF7 cells assessed as bardykinin-triggered Ca2+ mobilization at 1 uM pretreated for 10 mins measured every 5 secs by fluorescence analysis. Type of test: cell-based.

The record followed here is ChEMBL document CHEMBL2346531, “Investigation of σ receptors agonist/antagonist activity through N-(6-methoxytetralin-1-yl)- and N-(6-methoxynaphthalen-1-yl)alkyl derivatives of polymethylpiperidines” (Bioorg Med Chem, 2013).

Activity calls are given as the source filed them. The calls are words filed in the database; no cut-off is given here.

Sequence of Sigma non-opioid intracellular receptor 1 (Q60492 whole entry): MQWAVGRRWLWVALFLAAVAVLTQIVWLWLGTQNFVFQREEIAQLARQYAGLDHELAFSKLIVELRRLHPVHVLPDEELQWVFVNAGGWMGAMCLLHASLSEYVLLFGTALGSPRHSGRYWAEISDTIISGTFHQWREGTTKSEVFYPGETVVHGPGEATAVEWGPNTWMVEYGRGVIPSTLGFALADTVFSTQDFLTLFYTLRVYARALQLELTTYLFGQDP
Sequence of Sigma non-opioid intracellular receptor 1 (Homo sapiens) (Q99720 whole entry): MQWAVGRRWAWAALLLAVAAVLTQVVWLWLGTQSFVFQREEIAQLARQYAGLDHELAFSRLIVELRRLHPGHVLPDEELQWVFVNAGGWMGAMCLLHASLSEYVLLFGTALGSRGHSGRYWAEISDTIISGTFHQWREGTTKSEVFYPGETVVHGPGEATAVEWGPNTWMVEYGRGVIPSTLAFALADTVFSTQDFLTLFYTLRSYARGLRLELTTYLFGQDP

In general, EC50 refers to the midpoint of the concentration-response curve. As usually defined, the Ki is a dissociation constant, usually derived from enzyme kinetics or from competition with a known ligand. Regarding `COc1ccc2c(c1)CCCC2CCCCN1CCCCC1(C)C` (stereo not drawn), in the test with MCF7 [1], the Activity is on record as 20% and the EC50 was determined as 100 µM. Further, in [2], the inhibitory constant (Ki) is 0.0295 µM. Moreover, in the test with MCF7 [3], the Activity came to 14% and a half-maximal effect (EC50) was put at 100 µM. The Ratio Ki in test [4] came out at 9.

For `COc1ccc2c(CCCN3C(C)(C)CCCC3(C)C)cccc2c1`, the EC50 in the test with MCF7 [1] and in the test on MCF7 [3] was more than 100 µM each time. In addition, the Ki in [2] was found to be 0.495 µM; in test [5], 0.236 µM. Also, the Ratio Ki in [4] came to 2.1.

Regarding `COc1ccc2c(CCCN3CCCCC3(C)C)cccc2c1`, the EC50 in the test with MCF7 [1] and in the test with MCF7 [3] was more than 100 µM each time. In test [2], this compound yielded an inhibitory constant (Ki) of 0.094 µM. Further, the Ratio Ki in [4] is 0.09.

For the compound `COc1ccc2c(c1)CCCC2CCCCN1[C@H](C)CCC[C@@H]1C` (stereo partly drawn), the values for the EC50 in the test on MCF7 [1] and in the test with MCF7 [3] were more than 100 µM and 100 µM, respectively. The result (in the test on MCF7 [6]; in [7]) was inactive. For the same compound, the figures for the Ki in test [2] and in [5] were 0.0111 µM and 0.00867 µM, respectively. For the same compound, the Activity in the test on MCF7 [3] worked out at 14%. Also, the outcome with MCF7 [8] was Active. In test [4], the Ratio Ki came to 1.3. Besides, the inhibition entry in [9] is “inactive”. Also, in [10], the inhibition result was “Active”.

For `COc1ccc2c(c1)CCCC2CCCN1CCCCC1(C)C` (stereo not drawn), the EC50 in the test on MCF7 [1] and in the test with MCF7 [3] was more than 100 µM throughout. The compound further displayed a Ki in test [2] of 0.115 µM. For the same compound, the Ratio Ki in test [4] came to 0.6.

Consider `Cc1ccccc1NC(=N)Nc1ccccc1C` [DITOLYLGUANIDINE], for which the affinity in test [2] corresponds to a Ki of 0.0302 µM.

Regarding `COc1ccc2c(CCCN3[C@H](C)CCC[C@@H]3C)cccc2c1`, the half-maximal effective concentration (EC50) in the test on MCF7 [1] and in the test on MCF7 [3] was more than 100 µM in each case. Besides, the outcome (in test [11]; in the test on MCF7 [6]; in test [7]) was inactive. The outcome (in test [12]; in the test on MCF7 [8]) was Active. Moreover, the inhibition constant (Ki) in test [2] is 0.0454 µM; in test [5], 0.00743 µM. The Ratio Ki in test [4] was 6.1.

Consider `CN1CCN(CCc2ccc(Cl)c(Cl)c2)CC1`, for which the concentration for a half-maximal effect (EC50) in the test with MCF7 [1] is more than 100 µM; in the test on MCF7 [3], 70 µM.

With `COc1ccc2c(c1)CCCC2CCCN1C(C)(C)CCCC1(C)C` (stereo not drawn), the EC50 in the test on MCF7 [1] and in the test with MCF7 [3] was more than 100 µM each time. Besides, the Ki in test [2] is 0.641 µM; in test [5], 0.373 µM. In test [4], the Ratio Ki amounted to 1.7.

With `COc1ccc2c(CCCCN3CCCCC3(C)C)cccc2c1`, the Activity stood at 19% in the test on MCF7 [1] and 18% with MCF7 [3]. In addition, the EC50 in the test on MCF7 [1] and in the test on MCF7 [3] was 100 µM each time. The affinity in test [2] corresponds to a Ki of 0.0286 µM. In addition, the Ratio Ki in test [4] was 1.3.

With `COc1ccc2c(CCCCN3[C@H](C)CCC[C@@H]3C)cccc2c1.Cl`, the Activity came out at 14% in the test with MCF7 [1] and 12% in the test on MCF7 [3]. Further, the EC50 in the test on MCF7 [1] and with MCF7 [3] was 100 µM throughout. The inhibition entry in the test with MCF7 [13] is “inactive”. Also, the outcome (with MCF7 [6]; in test [7]) was inactive. In test [12], the result was Active. In addition, the figures for the inhibition constant (Ki) in [2] and in [5] were 0.0138 µM and 0.0185 µM, respectively. The Ratio Ki in test [4] is 0.7. The inhibition result in the test with MCF7 [14] was “Active”.

For `COc1ccc2c(c1)CCCC2CCCCN1C(C)(C)CCCC1(C)C` (stereo not drawn), the concentration giving a half-maximal response (EC50) in the test with MCF7 [1] and with MCF7 [3] was more than 100 µM in each case. Besides, the Ki was found to be 0.0698 µM in [2] and 0.0359 µM in test [5]. Also, the Ratio Ki in [4] turned out to be 1.9.

`COc1ccc2c(CCCCN3C(C)(C)CCCC3(C)C)cccc2c1`: the EC50 in the test with MCF7 [1] and with MCF7 [3] was more than 100 µM each time. Besides, the Ki amounted to 0.0907 µM in test [2] and 0.0886 µM in test [5]. In addition, in test [4], the Ratio Ki was found to be 1.

As to `c1ccc(CCN2CCCCC2)cc1`, the EC50 in the test with MCF7 [1] and with MCF7 [3] was more than 100 µM each time. Further, the outcome in the test on MCF7 [15] was Active.

For `COc1cccc2c1CCCC2CCCN1CCN(C2CCCCC2)CC1` (stereo not drawn), the EC50 in the test on MCF7 [1] was found to be 27.4 µM; in the test on MCF7 [3] it was 31.2 µM.

As for `CC(C)=CCN1CC[C@]2(C)c3cc(O)ccc3C[C@H]1[C@H]2C` [(+)-PENTAZOCINE], the EC50 with MCF7 [1] and with MCF7 [3] was more than 100 µM in each case. In addition, in the test with MCF7 [16], the outcome was inactive.

Take `COc1ccc2c(c1)CCCC2CCCN1[C@H](C)CCC[C@@H]1C` (stereo partly drawn): the EC50 in the test with MCF7 [1] and with MCF7 [3] was more than 100 µM in each case. Also, the outcome (in the test on MCF7 [6]; in test [7]) was inactive. Besides, the outcome (in test [12]; in the test on MCF7 [8]) was Active. In addition, the results for the Ki in [2] and in test [5] were 0.0909 µM and 0.11 µM, respectively. For the same compound, the Ratio Ki in test [4] was 0.8.
